# Experimental data published in patent US11331302B2, “Transmucosal delivery of tocotrienol” (INVICTUS BIOTECHNOLOGY PTY LTD., priority 2012, dated 2022).
# Tests used:
# [1] = molecular target: T1, alpha-tocopherol transport protein (a-TTP) (Rattus norvegicus, UniProt P41034); conditions: alpha-tocopherol = 100%; cited from earlier work
# T1 sequence (P41034 1-278): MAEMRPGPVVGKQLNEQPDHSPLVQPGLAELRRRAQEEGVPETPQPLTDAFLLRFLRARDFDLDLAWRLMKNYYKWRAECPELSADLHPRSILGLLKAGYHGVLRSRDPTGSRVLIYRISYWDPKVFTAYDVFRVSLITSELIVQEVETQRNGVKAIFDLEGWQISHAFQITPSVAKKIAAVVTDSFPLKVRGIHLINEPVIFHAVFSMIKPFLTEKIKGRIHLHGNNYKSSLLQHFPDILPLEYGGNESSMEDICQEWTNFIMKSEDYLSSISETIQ
# [2] = in vivo
# Experimental: FIG. 9: Appearance of blood plasma concentrations using gel and tablet sublingual formulations of a 40 mg dose of tocotrienols. Delta tocotrienol (delta-T3) and gamma tocotrienol (gamma-T3) levels were measured in plasma at time points up to 180 minutes from administration of the gel or tablet (tab) formulation.
# A test was carried out in 2 subjects who administered 40 mg tocotrienols in 2 ml of gel sublingually. Blood samples were collected from a forearm venous catheter before administration and at 15, 60, and 180 minutes after administration.
# [3] = Plasma tocotrienol levels after sublingual tablets; format: in vivo, human; conditions: 4×10 mg tablets sublingually, 2 subjects
# Experimental: A 220 mg sublingual tablet formulation was prepared containing a dose of 10 mg tocotrienol comprised of the actives: delta-tocotrienol 9 mg, gamma tocotrienol 1 mg; and the following excipients: dextrose, mannitol, marine gelatin, 1-leucine, 1-arginine, pre-gel starch, PEG-200, propylene glycol, talc, silica dioxide, magnesium stearate, carotenoids.
# A test was carried out on 2 subjects who dissolved 4×10 mg tablets sublingually.
# [4] = humans; same dose of tocotrienol preparations; cited from earlier work
# [5] = animal study, estimated; cited from earlier work
molecule,measurement,setting,value
Cc1c(C)c2c(c(C)c1O)CC[C@@](C)(CCC[C@H](C)CCC[C@H](C)CCCC(C)C)O2 [alpha-tocopherol],relative affinity towards a-TTP,[1],100%
CC(C)=CCC/C(C)=C/CC/C(C)=C/CC[C@]1(C)CCc2cc(O)cc(C)c2O1 [delta tocotrienol],ratio of delta to gamma tocotrienol levels in plasma,[2],9:1
Cc1cc(O)cc2c1O[C@](C)(CCC[C@H](C)CCC[C@H](C)CCCC(C)C)CC2 [delta-tocopherol],relative affinity towards a-TTP,[1],2%
CC(C)=CCC/C(C)=C/CC/C(C)=C/CC[C@]1(C)CCc2cc(O)c(C)c(C)c2O1 [gamma tocotrienol],plasma level,[3]; 20 minute point,800 nM
same,plasma level,[3]; 1 h,400 nM
same,plasma level,[3]; 2 h,190 nM
same,plasma level,[3]; 3 h,70 nM
same,relative affinity towards a-TTP,[1],9%
alpha-tocotrienol,relative affinity towards a-TTP,[1],12%
same,"plasma concentration, fold higher than that of gamma-tocotrienol",[4],2 fold
same,"plasma concentration, times higher than delta-tocotrienol",[4],~10 times
tocopherol,oral bioavailability,[5],36%
